Test results as given in patent publication US12239661B2, “Methods and compositions for treating undesired implanted tissue filler” (priority 2019, dated 2025).
Marks after values point to notes of the source that are not given here.

Experiments:
[1] = In vivo CT of filler nodule volume, density and 3D shape after test solutions 0-8 (Example 3); conditions: for Change in Volume as percent of Injected Volume, Day 14/15: Example 3 (Day 14); for Change in Volume as percent of Injected Volume, Day 14/15 / Change in Volume as percent of Injected Volume, Day 0 + 2 h / Change in Volume as percent of Injected Volume, Day 0 + 4 h / Change in Volume as percent of Injected Volume, Day 1 / Change in Volume as percent of Injected Volume, Day 3 / Change in Volume as percent of Injected Volume, Day 7 / Change in Volume as percent of Injected Volume, Day 0 + 1 h 15: mean; for Change in Volume as percent of Injected Volume, Day 0 + 2 h / Change in Volume as percent of Injected Volume, Day 0 + 4 h / Change in Volume as percent of Injected Volume, Day 1 / Change in Volume as percent of Injected Volume, Day 3 / Change in Volume as percent of Injected Volume, Day 7 / Change in Volume as percent of Injected Volume, Day 0 + 1 h 15: Example 3; for Change in Volume as percent of Injected Volume, Day 0 + 1 h 15: 1.5 mL solution into 500 μl nodule; for effect on volume at the filler injection site: after 7 and 14 days, vs untreated
Method: One hour after filler injections (T=1 h), 1.5 mL of selected solutions (Table 5, solutions 0-8, test items, solution 0 is normal saline and not hyperosmotic) were injected each into 9 dermal filler nodules in the right flank (ventral area).
A total of 7 CT-scans were performed at 1 h 15, 2 h, 4 h, 1 day (24 h), 3, 7 and 14 days after injection of the dermal filler. The clinical state of each animal is assessed once a week by body weight measurement and clinical observations.
The 10 SC injections of dermal filler on Day 0 were performed in the ventral area, (five nodules on each flank of the ventral area) for each pig. For each SC nodule, a theoretical volume of 500 μl was administered. One hour (±5 min) after injection of dermal filler, SC injection of the different solutions (prepared the day before) were performed into nine (9) nodules of dermal. For each SC nodule, a theoretical volume of 1.5 mL of test solution was administered.
The X-ray computed tomography acquisitions were performed with the Computed Tomography Scanner BrightSpeed 16 (General Electric). In order to measure the volume and the mean density and to visualize the 3D shape of the dermal filler (Radiesse® filler with or without test solution) injected, in vivo CT-scans were performed on Day 0: 1 h 15 (±10 min), 2 h (±15 min) and 4 h (±20 min), on Day 1 (24 h+1 h), Day 3, Day 7 and Day 14.
During CT acquisition on Day 0, the pigs received an IM injection of anesthesia. The animals were maintained under anesthesia until the CT acquisition at T=2 h (2 h after dermal filler injection session). Between these CT acquisitions, the animals were under surveillance in the recovery room on a heating mat with fluidotherapy. At the end of the CT acquisition at T=2 h, the pigs received a tattoo around each injected site. During the CT acquisitions at T=4 h and on Days 1, 3, 7 and 14, pigs received an IM injection of anesthesia. For the CT-scans, animals were positioned in dorsal recumbency and acquisitions were centered on the injection sites. The parameters of the CT-scan are described in Table 5.
The CT acquisition was analyzed with the software Avizo version 9.2.0. The objective of this analysis was to assess the degradation over time of the dermal filler injected by SC route after injection of different test solutions.
An image segmentation processing was performed on each CT acquisition. First, a manual pre-segmentation was performed around each nodule in order to roughly isolate the voxels corresponding to dermal filler product, which defined a Region of Interest (ROI). Second, an automatic segmentation was applied on the previously defined ROI using a global grey level thresholding procedure.
On day 0, a farm pig received ten (10) SC injections of Radiesse® dermal filler 0.5 mL (ventral area) (10 nodules in total). One hour after filler injections (T=1 h), 1.5 mL of one of eight test hyperosmotic solutions (1-8 solutions, Table 5) was injected at an injection site. One injection site was untreated and one injection site was treated with normal saline (0.9% wt/v NaCl).

[2] = X-ray CT of volume, mean density and 3D shape of Radiesse nodules and injected hyperosmotic solutions (Example 4); format: in vivo, Pig (Sus scrofa domesticus)
Method: Pigs are injected by SC route with Radiesse® filler without Lidocaine (Test item). One hour after the Radiesse® filler injection, selected different hyperosmotic solutions are injected by SC route into the dermal filler nodules. For two Radiesse® filler nodules per pig, no additional product is injected; these nodules are used as controls.
The evolution over time of the volume and mean density of the Radiesse® filler nodules with injection of the different solutions are assessed by CT-scanner at selected time points: on Day 0, at about 1 hour (h) and 15 minutes (min), 2 h and 4 h after the Radiesse® filler injection and solution injection, and then, on Day 1 (about 24 h after Radiesse® filler injection), Day 3, Day 7 and Day 15.
On Day 0, 4 pigs received ten (10) SC injections of Radiesse® dermal filler (P20WK-EE-01) of about 500 μl/nodule in the flank (ventral area) at T=0. One hour after Radiesse® dermal filler injections (T=1 h), about 1.5 ml of different hyperosmotic solutions (P20WK-EE-02 to P20WK-EE-05) were each injected into 8 Radiesse® filler nodules. Two Radiesse® filler nodules per animal were not injected with hyperosmotic solution and served as controls.
A total of 7 CT-scans were performed at 1 h 15±10 min, 2 h±15 min, 4 h±20 min, 1 day (24 h±1 h), 3, 7 and 15 days after injection of the dermal filler, as described in FIG. 9A.
On Day 0 (TO), 10 SC injections of test item P20WK-EE-01 (Radiesse® dermal filler) were performed in the ventral area (five nodules on each flank of the ventral area). For each SC nodule, a theoretical volume of 500 μL was administered. One hour (±5 min) after injection of dermal filler, SC injections of the different solutions (prepared on Day −3) were performed into 8 nodules of dermal filler. For each injection of solution, a theoretical volume of 1.5 mL was administered (see, e.g., injection scheme in Table 11).
In order to measure the volume, the mean density and to visualize the 3D shape of the dermal filler SC injected (in presence or absence of different hyperosmotic solutions), in vivo CT-scans were performed on Day 0: 1 h 15 (±10 min), 2 h (±15 min) and 4 h (±20 min), on Day 1 (24 h±1 h), Day 3, Day 7 and Day 15.
The CT acquisitions are analyzed with the software Avizo version 9.2.0. The objective of this analysis was to assess the dispersion over time of the Radiesse® dermal filler injected by SC route after injection of different hyperosmotic solutions.
To achieve this goal, the evolution of these parameters is observed over time: • the volume of each nodule (Radiesse® dermal filler and solution separately), • the mean density of each nodule (Radiesse® dermal filler and solution separately), • the 3D shape of each nodule by visualization of the 3D model of each nodule at each time point (Radiesse® dermal filler with or without solution separately). Segmentation:
An image segmentation is performed on each CT acquisition on the […] reconstruction. At first, a manual pre-segmentation is performed around each nodule in order to roughly isolate the voxels corresponding to Radiesse® dermal filler and hyperosmotic solutions and defined a Region of Interest (ROI). Secondly, an automatic segmentation is applied on the ROI previously defined using a global grey level thresholding procedure. […] Similarly, all the voxels having a grey level between these HU values are selected in a ROI and corresponds to the pure solution or solution containing some dispersed Radiesse® dermal filler (see, FIG. 10).
Then, a 3D model of these selected voxels (see, FIG. 11) is obtained allowing the calculation of the total volume (in mm^3) and the mean density (in HU) of the two defined compartments of each nodule of Pure Radiesse® dermal filler and of each solution containing or not containing dispersed Radiesse® dermal filler.
The volume (in mm^3) of the ROI of Radiesse® dermal filler and the solutions corresponding to each nodule and the mean density (in HU) of each nodule are calculated at each time point.

[3] = listed as Hyperosmotic Saline (sol 1)

SMILES | Change in Volume as percent of Injected Volume, Day 14/15 [1] | Change in Volume as percent of Injected Volume, Day 0 + 2 h [1] | Change in Volume as percent of Injected Volume, Day 0 + 4 h [1] | Change in Volume as percent of Injected Volume, Day 1 [1] | Change in Volume as percent of Injected Volume, Day 3 [1] | Change in Volume as percent of Injected Volume, Day 7 [1] | Change in Volume as percent of Injected Volume, Day 0 + 1 h 15 [1] | other results
CC(=O)[O-].[Na+] [sol 3, Sodium acetate] | 176.61* percent | 154.89% | 165.88% | 202.12% | 197.50* percent | 189.13* percent | 152.73% | –
OC[C@H]1O[C@@](CO)(O[C@H]2O[C@H](CO)[C@@H](O)[C@H](O)[C@H]2O)[C@@H](O)[C@@H]1O [sol 8, Sucrose] | 180.45% | 167.63% | 190.95% | 202.96% | 207.85% | 199.72% | 167.87* percent | effect on volume at the filler injection site [1]: trend to decrease volume of filler
O.O.O.O.O.O.O.O=S(=O)([O-])[O-].[Mg+2] [sol 5, Magnesium sulfate heptahydrate] | 186.95% | 159.33% | 158.84* percent | 188.43% | 206.26* percent | 202.32% | 170.49* percent | –
O.O.O=C([O-])CC(O)(CC(=O)[O-])C(=O)[O-].[Na+].[Na+].[Na+] [sol 9, Sodium citrate, dihydrate] | – | – | – | – | – | – | – | Change in Volume as percent of Injected Volume, Day 14/15 ([2]; Example 4 (Day 15), mean): 1969%; Change in Volume as percent of Injected Volume, Day 0 + 1 h 15 ([2]; Example 4, mean): 1488%; Change in Volume as percent of Injected Volume, Day 0 + 2 h ([2]; Example 4, mean): 1571%; Change in Volume as percent of Injected Volume, Day 0 + 4 h ([2]; Example 4, mean): 1901%; Change in Volume as percent of Injected Volume, Day 1 ([2]; Example 4, mean): 2210%; Change in Volume as percent of Injected Volume, Day 3 ([2]; Example 4, mean): 2010%; Change in Volume as percent of Injected Volume, Day 7 ([2]; Example 4, mean): 2243%; average of the mean density of solution nodules, T=1 h 15 ([2]; between −100 HU and 250 HU): 18.4±7.0 HU; average of the mean density of solution nodules, T=2 h ([2]; between −100 HU and 250 HU): 2.1±7.9 HU; mean volume of solution with potential dispersed Radiesse, T=2 h ([2]; between −100 HU and 250 HU): 4319.7±989.2 mm^3; variation of the average of the mean density of solutions, Day 15 compared to T=1 h 15 ([2]; between −100 HU and 250 HU): 347.7%; average of the mean density of nodules, Day 1 ([2]; pure Radiesse >250 HU): 447.0±34.1 HU; average of the mean density of nodules, Day 3 ([2]; pure Radiesse >250 HU): 478.2±64.8 HU
OCC(O)CO [sol 6, Glycerol] | 173.93* percent | 156.43% | 184.92% | 200.32% | 197.65* percent | 197.62* percent | 151.48% | –
O.O.O=P([O-])(O)O.[Na+] [sol 2, Sodium dihydrogen phosphate dihydrate] | 179.72* percent | 151.58% | 164.27% | 198.42% | 201.11% | 201.97% | 156.57% | –
[Cl-].[Na+] [sol 1, Sodium chloride] | – | – | – | – | – | – | – | Change in Volume as percent of Injected Volume, Day 14/15 [1, 3]: 175.89* percent; Change in Volume as percent of Injected Volume, Day 0 + 1 h 15 [1, 3]: 161.28* percent; Change in Volume as percent of Injected Volume, Day 0 + 2 h [1, 3]: 157.58%; Change in Volume as percent of Injected Volume, Day 0 + 4 h [1, 3]: 164.59* percent; Change in Volume as percent of Injected Volume, Day 1 [1, 3]: 202.75%; Change in Volume as percent of Injected Volume, Day 3 [1, 3]: 199.27%; Change in Volume as percent of Injected Volume, Day 7 [1, 3]: 192.06* percent; effect on volume at the filler injection site ([1]; listed as hyperosmotic NaCl): significant decreased volume
